The record followed here is publication PMC8406311, “Change in Cofactor Specificity of Oxidoreductases by Adaptive Evolution of an Escherichia coli NADPH-Auxotrophic Strain” (mBio, 2021).

Common to all, as to type: biochemical
Test [1] deals with T1, Lpd (dihydrolipoamide dehydrogenase; lipoamide dehydrogenase) (Escherichia coli, UniProt P0A9P0).
T1 construct: gene lpdA; N-terminal His-tag (modified pET22b(+)), expressed in E. coli BL21(DE3) Codon+, HisTrap and gel filtration
Kind of test: NAD(P)H formation at […] nm, nonlinear fit of initial rates. Particulars: 100 mM Na phosphate, 100 mM KCl, 8 mM TCEP, pH 7.6, room temperature, apparent.

For test [2], the target named is T2, MaeA (NAD+-dependent malic enzyme) (Escherichia coli, UniProt P26616).
T2 construct: N-terminal His-tag (modified pET22b(+)), expressed in E. coli BL21(DE3), HisTrap purified
T2 sequence (P26616 1-565): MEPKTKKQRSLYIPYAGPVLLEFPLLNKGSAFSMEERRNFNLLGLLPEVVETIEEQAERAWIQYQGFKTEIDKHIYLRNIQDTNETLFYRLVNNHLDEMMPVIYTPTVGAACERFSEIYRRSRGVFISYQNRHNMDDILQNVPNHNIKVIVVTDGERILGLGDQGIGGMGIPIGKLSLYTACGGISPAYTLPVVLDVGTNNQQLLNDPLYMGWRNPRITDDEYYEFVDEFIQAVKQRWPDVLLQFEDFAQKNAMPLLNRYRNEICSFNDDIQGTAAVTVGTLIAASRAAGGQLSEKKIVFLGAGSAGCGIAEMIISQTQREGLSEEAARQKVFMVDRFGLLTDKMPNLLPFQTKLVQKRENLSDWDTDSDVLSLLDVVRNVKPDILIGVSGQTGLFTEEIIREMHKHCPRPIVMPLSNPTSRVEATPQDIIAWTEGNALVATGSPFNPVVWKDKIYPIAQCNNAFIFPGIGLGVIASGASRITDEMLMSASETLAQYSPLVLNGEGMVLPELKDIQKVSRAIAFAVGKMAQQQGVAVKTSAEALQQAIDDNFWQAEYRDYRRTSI
Kind of test: NAD(P)H formation at […] nm, Michaelis-Menten fit. Conditions: 50 mM Tris HCl pH 7.5, 10 mM MgCl2, 30 °C, apparent.

In test [3] the target is T3, Lpd (dihydrolipoamide dehydrogenase; lipoamide dehydrogenase) (Escherichia coli, UniProt P0A9P0, E205A).
T3 construct: gene lpdA; N-terminal His-tag (modified pET22b(+)), expressed in E. coli BL21(DE3) Codon+, HisTrap and gel filtration
T3 sequence (P0A9P0 2-474 E205A): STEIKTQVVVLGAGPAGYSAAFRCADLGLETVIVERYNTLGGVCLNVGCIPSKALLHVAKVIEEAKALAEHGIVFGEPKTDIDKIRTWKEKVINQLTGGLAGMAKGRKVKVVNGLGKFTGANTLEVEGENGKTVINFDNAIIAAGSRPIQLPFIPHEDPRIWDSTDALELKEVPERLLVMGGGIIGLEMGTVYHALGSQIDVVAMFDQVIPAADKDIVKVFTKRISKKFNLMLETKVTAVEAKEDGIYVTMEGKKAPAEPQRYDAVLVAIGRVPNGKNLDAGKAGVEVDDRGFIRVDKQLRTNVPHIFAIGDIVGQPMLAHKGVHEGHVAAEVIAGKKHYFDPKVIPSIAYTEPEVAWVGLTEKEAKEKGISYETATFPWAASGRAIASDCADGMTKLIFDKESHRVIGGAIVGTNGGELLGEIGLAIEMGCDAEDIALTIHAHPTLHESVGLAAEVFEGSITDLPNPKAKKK
The test is described as follows: NAD(P)H formation at […] nm, nonlinear fit of initial rates. Particulars: 100 mM Na phosphate, 100 mM KCl, 8 mM TCEP, pH 7.6, room temperature; 4 mM dihydrolipoamide; apparent.

Test [4] addresses T4, MaeA (NAD+-dependent malic enzyme) (Escherichia coli, UniProt P26616, L176V/D336N).
T4 construct: N-terminal His-tag (modified pET22b(+)), expressed in E. coli BL21(DE3), HisTrap purified
T4 sequence (P26616 1-565 L176V/D336N): T2 sequence (P26616 1-565) with L176V, D336N
The test is described as follows: NAD(P)H formation at […] nm, Michaelis-Menten fit. Conditions: 50 mM Tris HCl pH 7.5, 10 mM MgCl2, 30 °C; L-malate at 6 to 10 times its KM; apparent.

The target in test [5] is T5, Lpd (dihydrolipoamide dehydrogenase; lipoamide dehydrogenase) (Escherichia coli, UniProt P0A9P0, E205G).
T5 construct: gene lpdA; N-terminal His-tag (modified pET22b(+)), expressed in E. coli BL21(DE3) Codon+, HisTrap and gel filtration
T5 sequence (P0A9P0 2-474 E205G): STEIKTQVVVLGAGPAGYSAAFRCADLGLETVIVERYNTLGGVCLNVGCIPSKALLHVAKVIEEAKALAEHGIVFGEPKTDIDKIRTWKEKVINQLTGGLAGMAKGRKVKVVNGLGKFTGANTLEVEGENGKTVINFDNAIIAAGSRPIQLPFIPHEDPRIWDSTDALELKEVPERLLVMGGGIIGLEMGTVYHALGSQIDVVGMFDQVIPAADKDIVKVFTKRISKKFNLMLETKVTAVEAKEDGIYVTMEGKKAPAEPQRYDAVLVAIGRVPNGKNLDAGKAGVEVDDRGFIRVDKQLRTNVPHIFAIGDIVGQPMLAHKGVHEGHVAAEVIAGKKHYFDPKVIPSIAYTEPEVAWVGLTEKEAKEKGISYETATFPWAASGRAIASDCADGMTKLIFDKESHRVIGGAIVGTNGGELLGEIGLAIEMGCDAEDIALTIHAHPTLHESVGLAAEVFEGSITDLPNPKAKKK
The test is described as follows: NAD(P)H formation at […] nm, nonlinear fit of initial rates. Particulars: 100 mM Na phosphate, 100 mM KCl, 8 mM TCEP, pH 7.6, room temperature; 4 mM dihydrolipoamide; apparent.

For test [6], the target named is T6, MaeA (NAD+-dependent malic enzyme) (Escherichia coli, UniProt P26616, I283N/D336A).
T6 construct: N-terminal His-tag (modified pET22b(+)), expressed in E. coli BL21(DE3), HisTrap purified
T6 sequence (P26616 1-565 I283N/D336A): T2 sequence (P26616 1-565) with I283N, D336A
Kind of test: NAD(P)H formation at […] nm, Michaelis-Menten fit. Particulars: 50 mM Tris HCl pH 7.5, 10 mM MgCl2, 30 °C; L-malate at 6 to 10 times its KM; apparent.

In test [7] the target is T7, MaeA (NAD+-dependent malic enzyme) (Escherichia coli, UniProt P26616, D336N).
T7 construct: N-terminal His-tag (modified pET22b(+)), expressed in E. coli BL21(DE3), HisTrap purified
T7 sequence (P26616 1-565 D336N): T2 sequence (P26616 1-565) with D336N
Kind of test: NAD(P)H formation at […] nm, Michaelis-Menten fit. Particulars: 50 mM Tris HCl pH 7.5, 10 mM MgCl2, 30 °C; L-malate at 6 to 10 times its KM; apparent.

[8] abbreviates: L-malate at 6 to 10 times its KM.

Each structure is given as a SMILES string. Residue numbers refer to the chain shown, from its start.

T1 sequence (P0A9P0 2-474): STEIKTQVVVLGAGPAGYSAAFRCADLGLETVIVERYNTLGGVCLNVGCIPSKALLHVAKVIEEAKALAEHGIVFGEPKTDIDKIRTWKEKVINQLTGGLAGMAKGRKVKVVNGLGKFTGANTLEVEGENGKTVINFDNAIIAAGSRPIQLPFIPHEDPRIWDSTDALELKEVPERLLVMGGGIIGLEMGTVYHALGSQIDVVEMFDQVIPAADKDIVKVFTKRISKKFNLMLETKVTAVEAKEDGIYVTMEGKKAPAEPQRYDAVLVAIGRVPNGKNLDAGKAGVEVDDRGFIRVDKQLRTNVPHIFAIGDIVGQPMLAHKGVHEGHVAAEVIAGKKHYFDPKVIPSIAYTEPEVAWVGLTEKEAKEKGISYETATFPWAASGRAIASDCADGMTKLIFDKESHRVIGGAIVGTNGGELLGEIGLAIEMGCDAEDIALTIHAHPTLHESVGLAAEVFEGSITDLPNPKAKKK

The term Km denotes the concentration of substrate that gives half-maximal velocity. As for `NC(=O)c1ccc[n+]([C@@H]2O[C@H](COP(=O)(O)OP(=O)(O)OC[C@H]3O[C@@H](n4cnc5c(N)ncnc54)[C@H](O)[C@@H]3O)[C@@H](O)[C@H]2O)c1` [NAD^+], the Km worked out at 440 ± 60 µM in test [1] (4 mM dihydrolipoamide); 100 ± 20 µM in test [2] (setting [8]); 6350 ± 380 µM in test [3]; 270 ± 30 µM in test [4]; 9490 ± 1820 µM in test [5]; 270 ± 30 µM in test [6]. Moreover, the Km in test [7] was 1500 ± 200 µM.

In the case of `O=C(O)C[C@H](O)C(=O)O` [L-malate], the Michaelis-Menten constant (Km) in test [2] (other substrates at 6 to 10 times their KM) was 630 ± 40 µM.

With `NC(=O)c1ccc[n+]([C@@H]2O[C@H](COP(=O)(O)OP(=O)(O)OC[C@H]3O[C@@H](n4cnc5c(N)ncnc54)[C@H](OP(=O)(O)O)[C@@H]3O)[C@@H](O)[C@H]2O)c1` [NADP^+], the Km stood at 3600 ± 400 µM in test [2] (setting [8]); 2480 ± 690 µM in test [3]; 16 ± 1 µM in test [4]; 3480 ± 1030 µM in test [5]; 13 µM in test [6]; 91 ± 10 µM in test [7].

As to `NC(=O)CCCC[C@@H](S)CCS` [dihydrolipoamide], the Km in test [1] turned out to be 180 ± 20 µM.
